Data: patent US8420852B2, “Phospholipase A2 inhibitors and their use in treating neurological injury and disease” (The Regents of the University of California, priority 2007, dated 2013)

Molecular target: T1, human cPLA2 (GIVA) (Homo sapiens, UniProt P47712)
T1 sequence (P47712 1-749): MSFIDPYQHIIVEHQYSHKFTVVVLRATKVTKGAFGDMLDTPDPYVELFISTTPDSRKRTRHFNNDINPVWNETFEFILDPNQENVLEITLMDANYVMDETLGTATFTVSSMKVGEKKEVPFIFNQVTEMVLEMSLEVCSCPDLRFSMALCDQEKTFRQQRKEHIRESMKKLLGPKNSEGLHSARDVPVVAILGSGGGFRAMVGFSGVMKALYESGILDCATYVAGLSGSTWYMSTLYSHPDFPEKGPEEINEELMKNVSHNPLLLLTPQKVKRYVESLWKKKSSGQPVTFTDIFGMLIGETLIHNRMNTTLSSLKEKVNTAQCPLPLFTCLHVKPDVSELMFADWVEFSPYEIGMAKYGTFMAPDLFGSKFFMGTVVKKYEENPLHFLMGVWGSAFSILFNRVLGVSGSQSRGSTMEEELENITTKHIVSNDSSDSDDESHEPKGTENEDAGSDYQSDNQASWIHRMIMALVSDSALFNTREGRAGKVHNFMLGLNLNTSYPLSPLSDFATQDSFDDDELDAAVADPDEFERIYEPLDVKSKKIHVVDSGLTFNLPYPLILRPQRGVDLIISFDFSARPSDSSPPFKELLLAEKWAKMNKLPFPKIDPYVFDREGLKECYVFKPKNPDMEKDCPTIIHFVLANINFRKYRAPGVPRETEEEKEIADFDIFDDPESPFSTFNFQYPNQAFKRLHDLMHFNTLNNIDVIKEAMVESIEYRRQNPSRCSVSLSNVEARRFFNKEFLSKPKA
Test: cPLA2 (GIVA) specific mixed micelle assay
Type: biochemical
Conditions: at 0.091 mol fraction
Experimental: The compounds described herein were tested for inhibition of PLA2s in in vitro assay systems. The data, summarized in the Examples, are represented as XI(50) values unless otherwise noted. XI(50) is defined as the inhibitor concentration that produced 50% inhibition. XI(50) is used as opposed to the more common IC50 because GIVA and GVIA PLA2 are active at a two-dimensional lipid interface rather than in three-dimensional solution. (Deems, Anal. Biochem., 287:1-16, 2000).
For the groups that received delayed treatment after symptoms occurred, mice were treated with daily intraperitoneal injections of AX059 starting from the first day of clinical symptoms, beginning on day 11; and AX115 starting from the first day of clinical peak (i.e., score 4), beginning of day 14. All inhibitors were administered for 2 weeks. The selectivity of the compounds for the different PLA2s is shown as the percentage inhibition in Table 1. The XI(50) is the mole fraction of the inhibitor in the total substrate interface required to inhibit the enzyme by 50%.
Compound AX115 was tested for its ability to inhibit human cPLA2 (GIVA) in a cPLA2 (GIVA) specific assay that uses mixed micelles of the substrate 1-palmitoyl-2-arachidonyl phosphatidylcholine and the detergent Triton X-100 (97:3) containing phosphatidylinositol 4,5-bisphosphate (400 μM) as previously described. […]

Structure (SMILES): CCCCCCCCCCCCCCC(=O)C(=O)NCC(=O)OC [AX115]
- Inhibition cPLA2 GIVA: 62%
